The nature of assay [1]: Relative affinity for alpha-2-adrenoceptor and phenylethanolamine N-methyl-transferase (PNMT). More on the design: reference not given here.
Assay [2] addresses T1, Adrenergic receptor alpha-2 (Rattus norvegicus, UniProt P22086+P19328+P22909).
T1 sequence (P22086 whole entry): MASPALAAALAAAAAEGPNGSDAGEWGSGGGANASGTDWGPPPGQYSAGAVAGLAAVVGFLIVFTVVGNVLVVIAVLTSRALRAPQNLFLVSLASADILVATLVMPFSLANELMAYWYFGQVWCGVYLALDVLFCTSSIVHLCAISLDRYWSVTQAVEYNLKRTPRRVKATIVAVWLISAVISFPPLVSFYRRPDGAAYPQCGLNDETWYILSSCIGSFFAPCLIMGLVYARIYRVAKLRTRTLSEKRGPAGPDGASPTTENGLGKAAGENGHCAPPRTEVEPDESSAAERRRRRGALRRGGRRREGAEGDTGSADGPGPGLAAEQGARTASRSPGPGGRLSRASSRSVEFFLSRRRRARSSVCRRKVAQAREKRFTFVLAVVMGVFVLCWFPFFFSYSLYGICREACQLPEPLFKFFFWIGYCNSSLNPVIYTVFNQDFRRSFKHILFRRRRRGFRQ
T1 sequence (P19328 whole entry): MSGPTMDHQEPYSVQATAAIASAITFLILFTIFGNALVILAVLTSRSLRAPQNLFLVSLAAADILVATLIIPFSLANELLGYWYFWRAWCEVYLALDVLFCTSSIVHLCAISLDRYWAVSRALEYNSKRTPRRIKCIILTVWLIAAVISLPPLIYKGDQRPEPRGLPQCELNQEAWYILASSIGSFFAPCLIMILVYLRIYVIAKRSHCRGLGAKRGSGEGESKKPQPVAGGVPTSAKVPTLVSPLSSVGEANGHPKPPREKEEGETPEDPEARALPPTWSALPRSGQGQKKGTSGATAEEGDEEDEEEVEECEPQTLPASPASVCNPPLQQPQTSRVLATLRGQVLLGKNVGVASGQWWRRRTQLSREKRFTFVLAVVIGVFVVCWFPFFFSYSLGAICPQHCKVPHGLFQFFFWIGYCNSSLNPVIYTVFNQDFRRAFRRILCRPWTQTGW
T1 sequence (P22909 whole entry): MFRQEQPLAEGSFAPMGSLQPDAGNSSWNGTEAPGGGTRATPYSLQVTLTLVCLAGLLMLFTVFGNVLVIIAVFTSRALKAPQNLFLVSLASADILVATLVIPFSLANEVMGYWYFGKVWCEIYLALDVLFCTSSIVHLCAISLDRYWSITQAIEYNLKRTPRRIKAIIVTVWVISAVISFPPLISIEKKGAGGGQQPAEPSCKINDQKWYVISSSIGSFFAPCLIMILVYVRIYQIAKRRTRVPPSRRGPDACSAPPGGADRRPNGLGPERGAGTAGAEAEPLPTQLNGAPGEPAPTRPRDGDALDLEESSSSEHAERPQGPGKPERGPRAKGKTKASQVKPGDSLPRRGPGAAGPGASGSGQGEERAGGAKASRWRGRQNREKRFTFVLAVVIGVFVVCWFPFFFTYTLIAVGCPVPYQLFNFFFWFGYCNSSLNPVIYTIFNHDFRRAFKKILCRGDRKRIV
Description: Inhibition of [3H]clonidine binding to the rat alpha-2-adrenoceptor. Type of assay: protein assay.

Here are results for five molecules from ChEMBL document CHEMBL1131937 (Bioorg Med Chem Lett, 1999).

Molecules are shown by their SMILES.

For the molecule `N#Cc1ccc2c(c1)CNC(C(F)(F)F)C2` (stereo not given), in assay [1], the Selectivity worked out at 220. The molecule further had a Ki in assay [2] of 2900 µM.
For `C[C@H]1Cc2sc3ccccc3c2CN1` the same measures were 4100 and 1400 µM.
The matching figures for `CS(=O)(=O)c1ccc2c(c1)CNC(C(F)(F)F)C2` (stereo not given): 110 and 3900 µM.
For `FC(F)(F)C1Cc2ccccc2CN1` (stereo not given) the same measures were 26 and 400 µM.
In assay [1], `O=[N+]([O-])c1ccc2c(c1)CNC(C(F)(F)F)C2` (stereo not given) gave a Selectivity of 750. The molecule further registered a Ki in assay [2] of 1500 µM.

As usually defined, the Ki is a dissociation constant, usually derived from enzyme kinetics or from competition with a known ligand.
